In US20220267352A1, “RAPAMYCIN ANALOGS AND USES THEREOF” (Anakuria Therapeutics, Inc., priority 2021, published 2022):

Columns and labels:
Type in all cases: cell-based
[1] = test system: p-Akt 1/2/3 (Ser473) in MCF-7 cells; experiment: AlphaLISA Ultra pAKT assay; conditions: Homo sapiens, 1.5 h; MCF7 cells, 90 min
In short: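 MCF-7 cells (16,000˜20,000 per well in 36 μL medium) were seeded in Corning 3701 plates for 20˜24 hour, refreshed with new medium for 90 minutes, then given 12 μL of 4× compound (0.5% final DMSO). Cells were lysed with 2× lysis buffer, and lysate was analyzed by AlphaLISA Ultra pAKT using acceptor and donor beads, read on an EnSpire reader.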

mTORC1 over mTORC2 = mTORC1 over mTORC2 selectivity by comparing pS6K1 and pAKT IC50; conditions: by comparing pS6K1 and pAKT IC50, 90 min
In short: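 MCF-7 cells were treated with compounds (0.5% final DMSO) for 90 minutes in one protocol and 2 hours in the other, then lysed. Phospho-signal in lysates was read by bead-based donor/acceptor proximity assay. pS6K1 and pAKT IC50 values were compared to judge mTORC1 over mTORC2 selectivity, at 90 min and at 24 hrs.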

[2] = test system: p-p70 S6 Kinase (Thr389) in MCF-7 cells; experiment: AlphaLISA Ultra pS6K1 assay; conditions: Homo sapiens, 1.5 h; MCF7 cells, 90 min
In short: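 MCF-7 cells seeded 20–24 h, given fresh medium 2 h, then treated with compounds 90 min (0.5% DMSO final). Cells lysed, lysates frozen at −80 °C, then Thr389-phosphorylated S6K1 detected by AlphaLISA Ultra with acceptor beads 2 h, then donor beads 2 h.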

[3] = test system: pS6K1 T389 and pAkt S473 in PC3 cells; experiment: Western blot based pS6K1 and pAKT assay at 24 and 48 hour timepoints
Description: Example 57: Western Blot Based pS6K1 and pAKT Assay at 24 and 48 Hour Timepoints
Assay Protocol: • 1. Seed six well plate with 500,000 PC3 cells per well and incubate for 20˜24 hour. • 2. Add compounds into the cell plate. Incubate for 24 to 48 hours. • 4. Plate is placed on ice and the media is removed via aspiration. The wells are washed with 1 mL of 1x PBS and then fully aspirated. • 5. 110 μL of 1% Triton Lysis Buffer is added and each well is scraped vigorously. • 6. Cell homogenates are transferred to 1.5 mL eppendorf tubes on ice and spun down at 4° C. for 10 minutes at 10,000 rpm. • 7. Protein concentration of resulting cell lysates were quantified utilizing a Bradford assay and the samples run analyzed via Western blot on 4-12% Bis/Tris gels with 1×MES buffer. • 8. The gels were transferred onto membranes at 50V for 100 minutes, blocked with Odyssey Blocking buffer for 30 minutes then incubated overnight with primary antibody (pS6K1 T389 Rabbit or pAkt S473 Rabbit) overnight at 4° C. on a rotator. • 9. The membranes were washed 3× with TBS-T with a 5 minute incubation between each wash then incubated with secondary antibody (LiCor IRDye 800 Donkey Anti Rabbit) for at least 30 minutes. • 10. The membranes were washed 3× with TBS-T with a 5 minute incubation between each wash. • 11. The gels were then incubated for 5 minutes with PBS at room temperature then imaged using a Li-Cor.
Compounds that are not selective by comparing pS6K1 and pAKT IC50 by kinase assays are indicated by “NO” in the “mTORC1 selective @ 90 min” column of Table 4. […] Compounds that are not selective at the 24 hrs mark are indicated by “NO” in the “mTORC1 selective @ 24 hrs” column of Table 4. “N/A” stands for “not assayed” and “N/C” stands for “not calculated”.

Structure (SMILES)	IC50 [1] [nM]	IC50 [2] [nM]	mTORC1 selective @ 90 min (mTORC1 over mTORC2)	mTORC1 selective @ 24 hrs [3]
COCCOCCO[C@H]1C[C@@H]2CC[C@@H](C)[C@@](O)(O2)C(=O)C(=O)N2CCCC[C@H]2C(=O)O[C@H]([C@H](C)C[C@@H]2CC[C@@H](OCCO)[C@H](OC)C2)CC(=O)[C@H](C)/C=C(\C)[C@@H](OC)[C@@H](OC)C(=O)[C@H](C)C[C@H](C)/C=C/C=C/C=C/1C [I-37, (23E,25E,27E,28E,36R,37S,38R,39R,41S,43S,45S,46S,47R,48R,57R)-57-hydroxy-46-[(1R)-2-[(1S,3R,4R)-4-(2-hydroxyethoxy)-3-methoxy-cyclohexyl]-1-methyl-ethyl]-47,48-dimethoxy-45-[2-(2-methoxyethoxy)ethoxy]-36,37,38,39,49,50-hexamethyl-66,67-dioxa-58-azatricyclohexatriaconta-23,25,27(49),28(50)-tetraene-51,52,53,54,55-pentone]		1 to 10		Yes
CO[C@@H]1C[C@H](C[C@@H](C)[C@@H]2CC(=O)[C@H](C)/C=C(\C)[C@@H](O)[C@@H](OC)C(=O)[C@H](C)C[C@H](C)/C=C/C=C/C=C(\C)[C@@H](OCCOC3COC3)C[C@@H]3CC[C@@H](C)[C@@](O)(O3)C(=O)C(=O)N3CCCC[C@H]3C(=O)O2)CC[C@H]1OCCCN1CCOCC1 [I-14, (27E,29E,31E,32E,39R,40S,41R,42R,44S,46S,48S,49S,51R,52R,61R)-51,61-dihydroxy-52-methoxy-49-[(1R)-2-[(1S,3R,4R)-3-methoxy-4-(3-morpholinopropoxy)cyclohexyl]-1-methyl-ethyl]-39,40,41,42,53,54-hexamethyl-48-[2-(oxetan-3-yloxy)ethoxy]-73,74-dioxa-63-azatricyclohexatriaconta-27,29,31(53),32(54)-tetraene-55,56,57,58,59-pentone]		< 1		Yes
COCCOCCO[C@H]1C[C@@H]2CC[C@@H](C)[C@@](O)(O2)C(=O)C(=O)N2CCCC[C@H]2C(=O)O[C@H]([C@H](C)C[C@@H]2CC[C@@H](OC)[C@H](OC)C2)CC(=O)[C@H](C)/C=C(\C)[C@@H](OC)[C@@H](OC)C(=O)[C@H](C)C[C@H](C)/C=C/C=C/C=C/1C [I-31, (24E,26E,28E,29E,35R,36S,37R,38R,40S,42S,44S,45S,46R,47R,56R)-45-[(1R)-2-[(1S,3R,4R)-3,4-dimethoxycyclohexyl]-1-methyl-ethyl]-56-hydroxy-46,47-dimethoxy-44-[2-(2-methoxyethoxy)ethoxy]-35,36,37,38,48,49-hexamethyl-64,65-dioxa-57-azatricyclohexatriaconta-24,26,28(48),29(49)-tetraene-50,51,52,53,54-pentone]		10 to 100		Yes
COCCOCCO[C@H]1C[C@@H]2CC[C@@H](C)[C@@](O)(O2)C(=O)C(=O)N2CCCC[C@H]2C(=O)O[C@H]([C@H](C)C[C@@H]2CC[C@@H](OCCOC)[C@H](OC)C2)CC(=O)[C@H](C)/C=C(\C)[C@@H](OC)[C@@H](OC)C(=O)[C@H](C)C[C@H](C)/C=C/C=C/C=C/1C [I-47, (24E,26E,28E,29E,37R,38S,39R,40R,42S,44S,46S,47S,48R,49R,58R)-58-hydroxy-48,49-dimethoxy-46-[2-(2-methoxyethoxy)ethoxy]-47-[(1R)-2-[(1S,3R,4R)-3-methoxy-4-(2-methoxyethoxy)cyclohexyl]-1-methyl-ethyl]-37,38,39,40,50,51-hexamethyl-66,67-dioxa-59-azatricyclohexatriaconta-24,26,28(50),29(51)-tetraene-52,53,54,55,56-pentone]		1 to 10		Yes

Second part, led by results:

IC50 [1] [nM]	IC50 [2] [nM]	Structure (SMILES)	mTORC1 selective @ 90 min (mTORC1 over mTORC2)	mTORC1 selective @ 24 hrs [3]
≥ 1000	≥ 1000	CO[C@@H]1/C(C)=C/[C@@H](C)C(=O)C[C@@H]([C@H](C)C[C@@H]2CC[C@@H](O)[C@H](OC)C2)OC(=O)[C@@H]2CCCCN2C(=O)C(=O)[C@]2(O)O[C@@H](CC[C@H]2C)C[C@H](OCCOC2COC2)/C(C)=C/C=C/C=C/[C@@H](C)C[C@@H](C)C(=O)[C@@H]1OC [I-97, (1R,9S,12S,15R,16E,18R,19R,21R,23S,24E,26E,28E,30S,32S,35R)-1-hydroxy-12-[(1R)-2-[(1S,3R,4R)-4-hydroxy-3-methoxy-cyclohexyl]-1-methyl-ethyl]-18,19-dimethoxy-15,17,21,23,29,35-hexamethyl-30-[2-(oxetan-3-yloxy)ethoxy]-11,36-dioxa-4-azatricyclo[30.3.1.0^4,9]hexatriaconta-16,24,26,28-tetraene-2,3,10,14,20-pentone]	No	No
	1 to 10	COCCO[C@@H]1CC[C@@H](C[C@@H](C)[C@@H]2CC(=O)[C@H](C)/C=C(\C)[C@@H](O)[C@@H](OC)C(=O)[C@H](C)C[C@H](C)/C=C/C=C/C=C(\C)[C@@H](OC[C@H]3COCCO3)C[C@@H]3CC[C@@H](C)[C@@](O)(O3)C(=O)C(=O)N3CCCC[C@H]3C(=O)O2)C[C@H]1OC [I-64, (1R,9S,12S,15R,16E,18R,19R,21R,23S,24E,26E,28E,30S,32S,35R)-30-[[(2R)-1,4-dioxan-2-yl]methoxy]-1,18-dihydroxy-19-methoxy-12-[(1R)-2-[(1S,3R,4R)-3-methoxy-4-(2-methoxyethoxy)cyclohexyl]-1-methyl-ethyl]-15,17,21,23,29,35-hexamethyl-11,36-dioxa-4-azatricyclo[30.3.1.0^4,9]hexatriaconta-16,24,26,28-tetraene-2,3,10,14,20-pentone]		Yes
	1 to 10	COCCO[C@@H]1CC[C@@H](C[C@@H](C)[C@@H]2CC(=O)[C@H](C)/C=C(\C)[C@@H](O)[C@@H](OC)C(=O)[C@H](C)C[C@H](C)/C=C/C=C/C=C(\C)[C@@H](OC[C@@H]3COCCO3)C[C@@H]3CC[C@@H](C)[C@@](O)(O3)C(=O)C(=O)N3CCCC[C@H]3C(=O)O2)C[C@H]1OC [I-66, (1R,9S,12S,15R,16E,18R,19R,21R,23S,24E,26E,28E,30S,32S,35R)-30-[[(2S)-1,4-dioxan-2-yl]methoxy]-1,18-dihydroxy-19-methoxy-12-[(1R)-2-[(1S,3R,4R)-3-methoxy-4-(2-methoxyethoxy)cyclohexyl]-1-methyl-ethyl]-15,17,21,23,29,35-hexamethyl-11,36-dioxa-4-azatricyclo[30.3.1.0^4,9]hexatriaconta-16,24,26,28-tetraene-2,3,10,14,20-pentone]		Yes
	100 to 1000	CO[C@@H]1/C(C)=C/[C@@H](C)C(=O)C[C@@H]([C@H](C)C[C@@H]2CC[C@@H](OCCO)[C@H](OC)C2)OC(=O)[C@@H]2CCCCN2C(=O)C(=O)[C@]2(O)O[C@@H](CC[C@H]2C)C[C@H](OCCOCCOC2COC2)/C(C)=C/C=C/C=C/[C@@H](C)C[C@@H](C)C(=O)[C@@H]1OC [I-62, (1R,9S,12S,15R,16E,18R,19R,21R,23S,24E,26E,28E,30S,32S,35R)-1-hydroxy-12-[(1R)-2-[(1S,3R,4R)-4-(2-hydroxyethoxy)-3-methoxy-cyclohexyl]-1-methyl-ethyl]-18,19-dimethoxy-15,17,21,23,29,35-hexamethyl-30-[2-[2-(oxetan-3-yloxy)ethoxy]ethoxy]-11,36-dioxa-4-azatricyclo[30.3.1.0^4,9]hexatriaconta-16,24,26,28-tetraene-2,3,10,14,20-pentone]		No
	≥ 1000	COCCO[C@@H]1CC[C@@H](C[C@@H](C)[C@@H]2CC(=O)[C@H](C)/C=C(\C)[C@@H](OC)[C@@H](OC)C(=O)[C@H](C)C[C@H](C)/C=C/C=C/C=C(\C)[C@@H](OCCOCCOC3COC3)C[C@@H]3CC[C@@H](C)[C@@](O)(O3)C(=O)C(=O)N3CCCC[C@H]3C(=O)O2)C[C@H]1OC [I-69, (1R,9S,12S,15R,16E,18R,19R,21R,23S,24E,26E,28E,30S,32S,35R)-1-hydroxy-18,19-dimethoxy-12-[(1R)-2-[(1S,3R,4R)-3-methoxy-4-(2-methoxyethoxy)cyclohexyl]-1-methyl-ethyl]-15,17,21,23,29,35-hexamethyl-30-[2-[2-(oxetan-3-yloxy)ethoxy]ethoxy]-11,36-dioxa-4-azatricyclo[30.3.1.0^4,9]hexatriaconta-16,24,26,28-tetraene-2,3,10,14,20-pentone]		No
